Experimental findings from ChEMBL document CHEMBL1127842, “The desferrithiocin pharmacophore” (1994) are described below.

For experiment [1], the species on record is Rattus norvegicus. Nature of the experiment: Efficiency of iron clearance was determined. On the set-up: concentration or dose not given beside the values. The format is functional.
Experiment [2] has as its system Rattus norvegicus. Nature of the experiment: Tested for Iron clearance of compound, when administered subcutaneously at a dose 150 umol/kg in bile duct cannulated rat. The format is functional. The following applies: in the assay text read “orally” for “subcutaneously”.
The species entered for experiment [3] is Rattus norvegicus. Description: Tested for formation constant of the compound. In kind it is functional.
Experiment [4] deals with Rattus norvegicus. Description: Tested for Iron clearance of compound, when administered orally at a dose 150 umol/kg in bile duct cannulated rat; Inactive.

Several values for one entry are separate records, joined by “and”; a condition that tells them apart may be missing. Equal values may be shown once. Activity calls are given as the source filed them. The rule behind the calls is not given here.

`O=C(O)[C@@H]1CSC(c2ncccc2O)=N1` gave an Efficiency in the experiment listed under Rattus norvegicus [1] of 3.9%. Also, the Iron clearence in the experiment with Rattus norvegicus [2] is 166 µg/kg. Compound `O=C(O)[C@H]1CSC(c2ncccc2O)=N1` showed an Efficiency in the experiment filed under Rattus norvegicus [1] of 2.4%. In addition, the Iron clearence with Rattus norvegicus [2] came out at 101 µg/kg. In the experiment listed under Rattus norvegicus [3], the Kf came to 4e+29 M⁻¹. Take `CC(=O)N(O)CCCCCNC(=O)CCC(=O)N(O)CCCCCNC(=O)CCC(=O)N(O)CCCCCN` [DEFEROXAMINE]: the Efficiency in the experiment filed under Rattus norvegicus [1] is 2.8% and 1%. As for `O=C(O)C1CCSC(c2ncccc2O)=N1` (stereo not drawn), the Iron clearence result in the experiment with Rattus norvegicus [4] is “inactive”.

Compound `CN(O)C(=O)[C@H]1CSC(c2ncccc2O)=N1` gave an Efficiency in the experiment filed under Rattus norvegicus [1] of 3.1%.
